{"source": "ChEMBL document CHEMBL3992518", "about": "“Peptide Macrocycle Inhibitor of Coagulation Factor XII with Subnanomolar Affinity and High Target Selectivity” (J Med Chem, 2017)", "note": "*1 amine or outer side, *2 acyl side, *3 side chain or, on linkers, in order; H or OH if unused. Where a SMILES comes first, the peptide text is derived from it. Bridges are numbered along the chain shown (N, C = ends). [ ]: non-standard residue; d: D form. TATA = O=C(CC[*:1])N1CN(C(=O)CC[*:2])CN(C(=O)CC[*:3])C1; hArg = N=C(N)NCCCC[C@H](N)C(=O)O; hLeu = CC(C)CC[C@H](N)C(=O)O; Nle = CCCC[C@H](N)C(=O)O", "data": [{"biological_target": "T1, Coagulation factor XII (Homo sapiens, UniProt P00748)", "T1 sequence (P00748 whole entry)": "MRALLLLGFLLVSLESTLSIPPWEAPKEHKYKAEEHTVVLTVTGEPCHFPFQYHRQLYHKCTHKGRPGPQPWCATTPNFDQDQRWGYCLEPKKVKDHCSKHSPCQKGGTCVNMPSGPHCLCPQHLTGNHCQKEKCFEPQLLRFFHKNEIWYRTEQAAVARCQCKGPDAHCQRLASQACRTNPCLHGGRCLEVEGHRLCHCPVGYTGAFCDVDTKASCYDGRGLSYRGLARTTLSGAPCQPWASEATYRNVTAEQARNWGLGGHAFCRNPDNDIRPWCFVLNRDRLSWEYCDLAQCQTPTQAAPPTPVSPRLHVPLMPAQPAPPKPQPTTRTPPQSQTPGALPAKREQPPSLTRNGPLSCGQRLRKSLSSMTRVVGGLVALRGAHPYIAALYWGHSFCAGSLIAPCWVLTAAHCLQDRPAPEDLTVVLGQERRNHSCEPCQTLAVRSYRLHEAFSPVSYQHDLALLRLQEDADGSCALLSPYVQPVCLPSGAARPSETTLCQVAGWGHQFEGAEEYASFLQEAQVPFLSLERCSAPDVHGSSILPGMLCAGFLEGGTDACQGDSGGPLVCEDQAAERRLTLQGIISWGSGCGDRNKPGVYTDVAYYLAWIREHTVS", "assay": "Inhibition of human beta factor 12a using fluorogenic substrate Boc-Gln-Gly-Arg-AMC preincubated for 10 mins followed by addition of substrate measured every min for 30 mins", "units": {"Ki": "nM"}, "values": [{"smiles": "Cc1cccc(C[C@@H]2NC(=O)[C@@H](NC(=O)[C@@H](N)CCCNC(=N)N)CSCCC(=O)N3CN4CN(C3)C(=O)CCSC[C@H](NC(=O)[C@@H]3CCCN3C(=O)[C@H](CC(C)C)NC(=O)[C@H](CCCNC(=N)N)NC2=O)C(=O)N[C@@H](CCCNC(=N)N)C(=O)N[C@@H](CCC(N)=O)C(=O)N[C@@H](CC(C)C)C(=O)N[C@@H](CCCNC(=N)N)C(=O)N[C@H](C(=O)N[C@@H](CCCNC(=N)N)C(=O)N[C@@H](Cc2c[nH]c3ccccc23)C(=O)O)CSCCC4=O)c1", "Ki": 3.7}, {"smiles": "CC(C)C[C@@H]1NC(=O)[C@H](CCC(N)=O)NC(=O)[C@H](CCCNC(=N)N)NC(=O)[C@@H]2CSCCC(=O)N3CN(CN(C3)C(=O)CCSC[C@H](NC(=O)[C@@H](N)CCCNC(=N)N)C(=O)N3CCC[C@H]3C(=O)N[C@@H](CCCNC(=N)N)C(=O)N[C@@H](CC(C)C)C(=O)N3CCC[C@H]3C(=O)N2)C(=O)CCSC[C@@H](C(=O)N[C@@H](CCCNC(=N)N)C(=O)N[C@@H](Cc2c[nH]c3ccccc23)C(=O)O)NC(=O)[C@H](CCCNC(=N)N)NC1=O", "Ki": 36.9}, {"smiles": "CC(C)C[C@@H]1NC(=O)[C@H](CCC(N)=O)NC(=O)[C@H](CCCNC(=N)N)NC(=O)[C@@H]2CSCCC(=O)N3CN(CN(C3)C(=O)CCSC[C@H](NC(=O)[C@@H](N)CCCCN)C(=O)N[C@@H](Cc3ccccc3)C(=O)N[C@@H](CCCNC(=N)N)C(=O)N[C@@H](CC(C)C)C(=O)N3CCC[C@H]3C(=O)N2)C(=O)CCSC[C@@H](C(=O)N[C@@H](CCCNC(=N)N)C(=O)O)NC(=O)[C@H](CCCNC(=N)N)NC1=O", "note": "(H-KCFRLPCRQLRCR-OH; linker 2-7-12 via TATA)", "Ki": 9}, {"smiles": "CC[C@H](C)[C@@H]1NC(=O)[C@@H](NC(=O)[C@@H](N)CCCNC(=N)N)CSCCC(=O)N2CN3CN(C2)C(=O)CCSC[C@H](NC(=O)[C@@H]2CCCN2C(=O)[C@H](CC(C)C)NC(=O)[C@H](CCCNC(=N)N)NC1=O)C(=O)N[C@@H](CCCNC(=N)N)C(=O)N[C@@H](CCC(N)=O)C(=O)N[C@@H](CC(C)C)C(=O)N[C@@H](CCCNC(=N)N)C(=O)N[C@H](C(=O)N[C@@H](CCCNC(=N)N)C(=O)N[C@@H](Cc1c[nH]c2ccccc12)C(=O)O)CSCCC3=O", "note": "(H-RCIRLPCRQLRCRW-OH; linker 2-7-12 via TATA)", "Ki": 310}, {"smiles": "CC(C)C[C@@H]1NC(=O)[C@H](CCC(N)=O)NC(=O)[C@H](CCCNC(=N)N)NC(=O)[C@@H]2CSCCC(=O)N3CN(CN(C3)C(=O)CCSC[C@H](NC(=O)[C@@H](N)CCCNC(=N)N)C(=O)N[C@@H](CCc3ccccc3)C(=O)N[C@@H](CCCNC(=N)N)C(=O)N[C@@H](CC(C)C)C(=O)N3CCC[C@H]3C(=O)N2)C(=O)CCSC[C@@H](C(=O)N[C@@H](CCCNC(=N)N)C(=O)N[C@@H](Cc2c[nH]c3ccccc23)C(=O)O)NC(=O)[C@H](CCCNC(=N)N)NC1=O", "Ki": 366}, {"smiles": "CC(C)C[C@@H]1NC(=O)[C@H](CCC(N)=O)NC(=O)[C@H](CCCNC(=N)N)NC(=O)[C@@H]2CSCCC(=O)N3CN(CN(C3)C(=O)CCSC[C@H](NC(=O)[C@@H](N)CCCNC(=N)N)C(=O)N[C@@H](Cc3ccccc3)C(=O)N[C@@H](CCCNC(=N)N)C(=O)N[C@@H](CC(C)C)C(=O)N[C@@H](CO)C(=O)N2)C(=O)CCSC[C@@H](C(=O)N[C@@H](CCCNC(=N)N)C(=O)N[C@@H](Cc2c[nH]c3ccccc23)C(=O)O)NC(=O)[C@H](CCCNC(=N)N)NC1=O", "note": "(H-RCFRLSCRQLRCRW-OH; linker 2-7-12 via TATA)", "Ki": 29.4}, {"smiles": "CCCC[C@@H]1NC(=O)[C@H](CCCNC(=N)N)NC(=O)[C@H](Cc2ccccc2)NC(=O)[C@@H](NC(=O)[C@@H](N)CCCNC(=N)N)CSCCC(=O)N2CN3CN(C2)C(=O)CCSC[C@H](NC(=O)[C@@H]2CCCN2C1=O)C(=O)N[C@@H](CCCNC(=N)N)C(=O)N[C@@H](CCC(N)=O)C(=O)N[C@@H](CC(C)C)C(=O)N[C@@H](CCCNC(=N)N)C(=O)N[C@H](C(=O)N[C@@H](CCCNC(=N)N)C(=O)N[C@@H](Cc1c[nH]c2ccccc12)C(=O)O)CSCCC3=O", "note": "(H-RCFR[Nle]PCRQLRCRW-OH; linker 2-7-12 via TATA)", "Ki": "> 3000"}, {"smiles": "CC(C)C[C@@H]1NC(=O)[C@H](CCCNC(=N)N)NC(=O)[C@H](Cc2ccccc2)NC(=O)[C@@H](NC(=O)[C@@H](N)CCCNC(=N)N)CSCCC(=O)N2CN3CN(C2)C(=O)CCSC[C@H](NC(=O)[C@@H]2CCCN2C1=O)C(=O)N[C@@H](CCCNC(=N)N)C(=O)N[C@@H](CCC(N)=O)C(=O)N[C@@H](C(C)C)C(=O)N[C@@H](CCCNC(=N)N)C(=O)N[C@H](C(=O)N[C@@H](CCCNC(=N)N)C(=O)N[C@@H](Cc1c[nH]c2ccccc12)C(=O)O)CSCCC3=O", "note": "(H-RCFRLPCRQVRCRW-OH; linker 2-7-12 via TATA)", "Ki": 326}, {"smiles": "CC(C)C[C@@H]1NC(=O)[C@H](CCC(N)=O)NC(=O)[C@H](CCCNC(=N)N)NC(=O)[C@@H]2CSCCC(=O)N3CN(CN(C3)C(=O)CCSC[C@H](NC(=O)[C@@H](N)CCCNC(=N)N)C(=O)N[C@@H](Cc3ccccc3F)C(=O)N[C@@H](CCCNC(=N)N)C(=O)N[C@@H](CC(C)C)C(=O)N3CCC[C@H]3C(=O)N2)C(=O)CCSC[C@@H](C(=O)N[C@@H](CCCNC(=N)N)C(=O)N[C@@H](Cc2c[nH]c3ccccc23)C(=O)O)NC(=O)[C@H](CCCNC(=N)N)NC1=O", "Ki": 26.8}, {"smiles": "CC(C)CC[C@@H]1NC(=O)[C@H](CCCNC(=N)N)NC(=O)[C@H](Cc2ccccc2)NC(=O)[C@@H](NC(=O)[C@@H](N)CCCNC(=N)N)CSCCC(=O)N2CN3CN(C2)C(=O)CCSC[C@H](NC(=O)[C@@H]2CCCN2C1=O)C(=O)N[C@@H](CCCNC(=N)N)C(=O)N[C@@H](CCC(N)=O)C(=O)N[C@@H](CC(C)C)C(=O)N[C@@H](CCCNC(=N)N)C(=O)N[C@H](C(=O)N[C@@H](CCCNC(=N)N)C(=O)N[C@@H](Cc1c[nH]c2ccccc12)C(=O)O)CSCCC3=O", "note": "(H-RCFR[hLeu]PCRQLRCRW-OH; linker 2-7-12 via TATA)", "Ki": 2700}, {"smiles": "CC(C)C[C@@H]1NC(=O)[C@H](CC(N)=O)NC(=O)[C@H](CCCNC(=N)N)NC(=O)[C@@H]2CSCCC(=O)N3CN(CN(C3)C(=O)CCSC[C@H](NC(=O)[C@@H](N)CCCNC(=N)N)C(=O)N[C@@H](Cc3ccccc3)C(=O)N[C@@H](CCCNC(=N)N)C(=O)N[C@@H](CC(C)C)C(=O)N3CCC[C@H]3C(=O)N2)C(=O)CCSC[C@@H](C(=O)N[C@@H](CCCNC(=N)N)C(=O)N[C@@H](Cc2c[nH]c3ccccc23)C(=O)O)NC(=O)[C@H](CCCNC(=N)N)NC1=O", "note": "(H-RCFRLPCRNLRCRW-OH; linker 2-7-12 via TATA)", "Ki": 1000}, {"smiles": "CC(C)C[C@@H]1NC(=O)[C@H](CCC(N)=O)NC(=O)[C@H](CCCNC(=N)N)NC(=O)[C@@H]2CSCCC(=O)N3CN(CN(C3)C(=O)CCSC[C@H](NC(=O)[C@@H](N)CCCNC(=N)N)C(=O)N[C@@H](Cc3ccccc3)C(=O)N[C@@H](CCCNC(=N)N)C(=O)N[C@@H](CC(C)C)C(=O)N[C@@H](CC(=O)O)C(=O)N2)C(=O)CCSC[C@@H](C(=O)N[C@@H](CCCNC(=N)N)C(=O)N[C@@H](Cc2c[nH]c3ccccc23)C(=O)O)NC(=O)[C@H](CCCNC(=N)N)NC1=O", "note": "(H-RCFRLDCRQLRCRW-OH; linker 2-7-12 via TATA)", "Ki": 120}, {"smiles": "CC(C)C[C@@H]1NC(=O)[C@H](CCCNC(=N)N)NC(=O)[C@H](Cc2ccccc2)NC(=O)[C@@H](NC(=O)[C@@H](N)CCCNC(=N)N)CSCCC(=O)N2CN3CN(C2)C(=O)CCSC[C@H](NC(=O)[C@@H]2CCCN2C1=O)C(=O)N[C@@H](CCCNC(=N)N)C(=O)N[C@@H](CCC(N)=O)C(=O)N[C@@H](CC(C)(C)C)C(=O)N[C@@H](CCCNC(=N)N)C(=O)N[C@H](C(=O)N[C@@H](CCCNC(=N)N)C(=O)N[C@@H](Cc1c[nH]c2ccccc12)C(=O)O)CSCCC3=O", "Ki": 17.7}, {"smiles": "CC(C)C[C@@H]1NC(=O)[C@H](CCC(N)=O)NC(=O)[C@H](CCCNC(=N)N)NC(=O)[C@@H]2CSCCC(=O)N3CN(CN(C3)C(=O)CCSC[C@H](NC(=O)[C@@H](N)CCCNC(=N)N)C(=O)N[C@@H](Cc3ccccc3)C(=O)N[C@@H](CCCCNC(=N)N)C(=O)N[C@@H](CC(C)C)C(=O)N3CCC[C@H]3C(=O)N2)C(=O)CCSC[C@@H](C(=O)N[C@@H](CCCNC(=N)N)C(=O)N[C@@H](Cc2c[nH]c3ccccc23)C(=O)O)NC(=O)[C@H](CCCNC(=N)N)NC1=O", "note": "(H-RCF[hArg]LPCRQLRCRW-OH; linker 2-7-12 via TATA)", "Ki": 71}, {"smiles": "CC(C)C[C@@H]1NC(=O)[C@H](CCC(N)=O)NC(=O)[C@H](CCCNC(=N)N)NC(=O)[C@@H]2CSCCC(=O)N3CN(CN(C3)C(=O)CCSC[C@H](NC(=O)[C@@H](N)CCCNC(=N)N)C(=O)N[C@@H](Cc3cccnc3)C(=O)N[C@@H](CCCNC(=N)N)C(=O)N[C@@H](CC(C)C)C(=O)N3CCC[C@H]3C(=O)N2)C(=O)CCSC[C@@H](C(=O)N[C@@H](CCCNC(=N)N)C(=O)N[C@@H](Cc2c[nH]c3ccccc23)C(=O)O)NC(=O)[C@H](CCCNC(=N)N)NC1=O", "Ki": 3}, {"smiles": "CSCC[C@@H]1NC(=O)[C@H](CCC(N)=O)NC(=O)[C@H](CCCNC(=N)N)NC(=O)[C@@H]2CSCCC(=O)N3CN(CN(C3)C(=O)CCSC[C@H](NC(=O)[C@@H](N)CCCNC(=N)N)C(=O)N[C@@H](Cc3ccccc3)C(=O)N[C@@H](CCCNC(=N)N)C(=O)N[C@@H](CC(C)C)C(=O)N3CCC[C@H]3C(=O)N2)C(=O)CCSC[C@@H](C(=O)N[C@@H](CCCNC(=N)N)C(=O)N[C@@H](Cc2c[nH]c3ccccc23)C(=O)O)NC(=O)[C@H](CCCNC(=N)N)NC1=O", "note": "(H-RCFRLPCRQMRCRW-OH; linker 2-7-12 via TATA)", "Ki": 143}]}]}
